# According to ChEMBL document CHEMBL1126300, “Quinoline antifolate thymidylate synthase inhibitors: variation of the C2- and C4-substituents” (J Med Chem, 1992):
# Experiments:
# Thymidylate synthase = Thymidylate synthase (Mus musculus, UniProt P07607); test: In vitro inhibitory activity against thymidylate synthase from L1210 mouse leukemia cells; type: cell-based
# L1210 = test: In vitro inhibition of L1210 mouse leukemia cell growth in culture; type: functional, cell-based
# WIL2 = test: Inhibition of human derived cell line W1-L2 cell proliferation; type: functional, cell-based
# Thymidylate synthase, sequence (P07607 whole entry): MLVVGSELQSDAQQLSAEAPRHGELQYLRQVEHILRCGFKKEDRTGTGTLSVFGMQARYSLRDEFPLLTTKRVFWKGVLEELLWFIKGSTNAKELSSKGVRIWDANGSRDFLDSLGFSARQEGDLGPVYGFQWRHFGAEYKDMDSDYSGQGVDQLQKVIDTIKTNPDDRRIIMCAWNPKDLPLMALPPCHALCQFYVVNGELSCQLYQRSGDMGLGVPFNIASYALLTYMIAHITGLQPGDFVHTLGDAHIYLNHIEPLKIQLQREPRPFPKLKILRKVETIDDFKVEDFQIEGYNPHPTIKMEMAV
Compound,IC50 (Thymidylate synthase) [µM],IC50 (L1210) [µM],IC50 (WIL2) [µM]
C#CCN(Cc1ccc2nc(Cl)ccc2c1)c1ccc(C(=O)N[C@@H](CCC(=O)O)C(=O)O)cc1,2.6,> 100,–
C#CCN(Cc1ccc2nc(C)cc(O)c2c1)c1ccc(C(=O)N[C@@H](CCC(=O)O)C(=O)O)cc1,6.3,> 100,–
C#CCN(Cc1ccc2nc(NC(C)=O)cc(Cl)c2c1)c1ccc(C(=O)N[C@@H](CCC(=O)O)C(=O)O)cc1,1.2,> 100,–
C#CCN(Cc1ccc2[nH]c(N)nc(=O)c2c1)c1ccc(C(=O)N[C@@H](CCC(=O)O)C(=O)O)cc1,–,–,0.44
C#CCN(Cc1ccc2nc(CC)cc(Cl)c2c1)c1ccc(C(=O)N[C@@H](CCC(=O)O)C(=O)O)cc1,0.99,> 100,–
C#CCN(Cc1ccc2nc(C(=O)O)cc(Cl)c2c1)c1ccc(C(=O)N[C@@H](CCC(=O)O)C(=O)O)cc1,31,> 100,–
C#CCN(Cc1ccc2nc(C)ccc2c1)c1ccc(C(=O)N[C@@H](CCC(=O)O)C(=O)O)cc1,7.9,> 100,–
C#CCN(Cc1ccc2nc(N)cc(Cl)c2c1)c1ccc(C(=O)N[C@@H](CCC(=O)O)C(=O)O)c(F)c1,0.048,2.9,–
C#CCN(Cc1ccc2nc(C)cc(SC)c2c1)c1ccc(C(=O)N[C@@H](CCC(=O)O)C(=O)O)cc1,8.9,100,–
C#CCN(Cc1ccc2nc(Cl)cc(Cl)c2c1)c1ccc(C(=O)N[C@@H](CCC(=O)O)C(=O)O)cc1,–,8,–
C#CCN(Cc1ccc2nc(C)cc(Cl)c2c1)c1ccc(C(=O)N[C@@H](CCC(=O)O)C(=O)O)cc1,0.25,8,–
C#CCN(Cc1ccc2nc(CF)cc(Cl)c2c1)c1ccc(C(=O)N[C@@H](CCC(=O)O)C(=O)O)cc1,0.62,> 100,–
C#CCN(Cc1ccc2nc(C)cc(Br)c2c1)c1ccc(C(=O)N[C@@H](CCC(=O)O)C(=O)O)c(F)c1,0.096,1,–
C#CCN(Cc1ccc2nc(Cl)cc(Cl)c2c1)c1ccc(C(=O)N[C@@H](CCC(=O)O)C(=O)O)c(F)c1,0.023,1,–
Cc1cc(Cl)c2cc(CN(C)c3ccc(C(=O)N[C@@H](CCC(=O)O)C(=O)O)cc3)ccc2n1,2.3,24,–
CCN(Cc1ccc2nccc(Cl)c2c1)c1ccc(C(=O)N[C@@H](CCC(=O)O)C(=O)O)cc1,1.13,30,–
Cc1cc(Cl)c2cc(CNc3ccc(C(=O)N[C@@H](CCC(=O)O)C(=O)O)cc3)ccc2n1,38,> 100,–
C#CCN(Cc1ccc2nc(C)cc(C#N)c2c1)c1ccc(C(=O)N[C@@H](CCC(=O)O)C(=O)O)cc1,1.5,75,–
C#CCN(Cc1ccc2nc(C)cc(Cl)c2c1)c1ccc(C(=O)N[C@@H](CCC(=O)O)C(=O)O)c(F)c1,0.066,0.42,–
C#CCN(Cc1ccc2nc(C(N)=O)cc(Cl)c2c1)c1ccc(C(=O)N[C@@H](CCC(=O)O)C(=O)O)cc1,1.9,> 100,–
C#CCN(Cc1ccc2nc(C(F)(F)F)cc(Cl)c2c1)c1ccc(C(=O)N[C@@H](CCC(=O)O)C(=O)O)cc1,0.15,> 100,–

# Second part, led by results:
IC50 (Thymidylate synthase) [µM],IC50 (L1210) [µM],Compound,IC50 (WIL2) [µM]
0.096,11,C#CCN(Cc1ccc2nc(N)cc(Cl)c2c1)c1ccc(C(=O)N[C@@H](CCC(=O)O)C(=O)O)cc1,–
–,> 100,C#CCN(Cc1ccc2nc(C)cc(C)c2c1)c1ccc(C(=O)N[C@@H](CCC(=O)O)C(=O)O)cc1,–
9,> 100,C#CCN(Cc1ccc2nc(OC)cc(Cl)c2c1)c1ccc(C(=O)N[C@@H](CCC(=O)O)C(=O)O)cc1,–
1.05,> 100,CCN(Cc1ccc2nc(CO)cc(Cl)c2c1)c1ccc(C(=O)N[C@@H](CCC(=O)O)C(=O)O)cc1,–
0.22,14,C#CCN(Cc1ccc2nc(C)cc(Br)c2c1)c1ccc(C(=O)N[C@@H](CCC(=O)O)C(=O)O)cc1,–
1.9,100,CCN(Cc1ccc2nc(N)cc(OC)c2c1)c1ccc(C(=O)N[C@@H](CCC(=O)O)C(=O)O)cc1,–
0.35,4,C#CCN(Cc1ccc2nc(N)cc(C)c2c1)c1ccc(C(=O)N[C@@H](CCC(=O)O)C(=O)O)cc1,–
6,> 100,C#CCN(Cc1ccc2nc(C)cc(OC)c2c1)c1ccc(C(=O)N[C@@H](CCC(=O)O)C(=O)O)cc1,–
0.15,–,C#CCN(Cc1ccc2nc(Cl)cc(OC)c2c1)c1ccc(C(=O)N[C@@H](CCC(=O)O)C(=O)O)cc1,–
0.12,> 100,C#CCN(Cc1ccc2nc(Cl)cc(C)c2c1)c1ccc(C(=O)N[C@@H](CCC(=O)O)C(=O)O)cc1,–
0.74,23,CCN(Cc1ccc2nc(C)cc(Cl)c2c1)c1ccc(C(=O)N[C@@H](CCC(=O)O)C(=O)O)cc1,–
